Key:
[1] = test system: aMVMs from IQ/AA mutant mice; assay: Multichannel recordings of INa,L in cultured aMVM from IQ/AA transgenic mice; type: cell-based, mouse; details: aMVM transduced with FHF2-shRNA, incubation with FixR-cpp (2 hour)
Excerpt: As FHF2 is natively expressed in the murine heart, we considered whether manipulation of ambient FHF levels in adult mouse ventricular myocytes (aMVM) tunes INa,L. To do so, we utilized our recently published transgenic mouse models expressing (1) pseudo-wild-type NaV1.5 (pWT), and (2) IQ/AA mutant channels that abolish the interaction of CaM, a de facto channel subunit involved in the modulation of late Na current. […] Whether this discrepancy stems from INa,L modulation by endogenous FHF in cardiomyocytes is not fully established. Accordingly, we undertook cell-attached multichannel recordings to measure changes in the magnitude of INa,L upon downregulating FHF2 levels using shRNA. […] Of note, the amplitude of INa,L here is quantified as Rpersist, the ratio of the average open probability (PO) following 50 ms of depolarization and the peak PO. This approach allows robust quantification of the likelihood of late channel openings, while still maintaining the cytosolic milieu and intact signaling. Downregulation of FHF2 by adenovirally transduced shRNA had no effect on INa,L of pWT mice (FIGS. 1D and 1H), as expected given the strong inactivation of wild-type NaV1.5. […] Expression of scrambled shRNA had no effect on INa,L in aMVMs from both pWT and IQ/AA mutant mice (FIGS. IF-1H). Similar to pWT, INa,L of non-transgenic mice was also insensitive to FHF2 manipulation (FIG. 1H and 7A-7D). […]

NaV1.5 = assay: Late Na current inhibition across NaV1.5 channelopathic mutations and channel phosphorylation; type: cell-based, human; details: various disease linked NaV1.5 channelopathic mutations and channel phosphorylation, in nearly all cases
Experimental: HEK293 cells (ATCC CRL1573) were cultured on glass coverslips in 60-mm dishes and transfected using the Ca^2+-phosphate method as previously described. For electrophysiology experiments, we co-transfected 4-8 μg of cDNA encoding the desired channel variant with 4 μg of YFP, and 1 μg of simian virus 40 T-antigen. For experiments evaluating effect of FHF, we transfected the relevant FHF variant at 1:1 ratio as the α-subunit. For experiments considering competition between FHF1/2 isoforms, we co-transfected FHF1B and FHF2S variants at specified ratios (ranging from 1:1 to 1:10). The culture media was replaced following 4 h of transfection. Electrophysiology recordings were then performed at room temperature 1-2 days following transfection.
Multichannel records were obtained in the on-cell configuration with either HEK293 cells or in aMVM as in our previous study. The pipette contained (in mM): 140 NaCl; 10 HEPES; 0.5 CaCl2; at 300 mOsm, adjusted with tetraethylammonium methanesulfonate; and pH 7.4 adjusted with tetraethylammonium hydroxide. To zero membrane potential, the bath contained (in mM): 132 K^+-glutamate; 5 KCl; 5 NaCl; 3 MgCl; 2 EGTA; 10 glucose; 20HEPES; at 300 mOsm adjusted with glucose; and pH 7.4 adjusted with NaOH. Data were acquired at room temperature using the integrating mode of an Axopatch 200A amplifier (Axon Instruments, Molecular Devices). […]

Substance	reduction in Rpersist [1] [fold]	inhibition of INa,L (NaV1.5) [fold]
FixR-cpp: FixR fused to HIV-1 TAT transduction domain, YGRKKRRQRRRAAAIASSLIRQKRQARESNSERVSASKRRSSPSKG (SEQ ID NO: 2)	~10	–
FixR: minimal 39-amino-acid FHF1A amino-terminal effector domain, MAAAIASSLIRQKRQARESNSDRVSASKRRSSPSKDGRS (SEQ ID NO: 4), expressed as peptide	–	~10

— US20250049953A1, “TREATMENT AND METHOD FOR INHIBITING LATE NA CURRENT” (THE TRUSTEES OF COLUMBIA UNIVERSITY IN THE CITY OF NEW YORK, priority 2022, published 2025)
